Residues, ends and D or L forms follow the SMILES beside them. *: point of attachment. Cbz = O=C(OCc1ccccc1)*
Columns and labels:
D1 dopamine receptor = biological target: T1, D1 dopamine receptor (Mus musculus, UniProt Q61616); test: D1 agonist-induced PKA-dependent phosphorylation in striatal slices; format: cell-based
T1 construct: from tissue; host or cells: acute mouse striatal slices
Experimental: Homogenates were prepared from rapidly dissected tissue or striatal slices using standard methodology (Nishi et al., 1997).

calpain = conditions: preincubation 20 μM, 1 h, striatal slices
Experimental: Acutely prepared coronal slices were prepared as described (Nishi et al., 1997). For OGD, slices were switched from Kreb's buffer bubbled in 95% O2/5% CO2 to 100% N2 and glucose was replaced by 10 mM sucrose for indicated periods (Sahin et al., 2008; Sahin et al., 2007). […] Homogenates were prepared from rapidly dissected tissue or striatal slices using standard methodology (Nishi et al., 1997). […] For immunostaining of cultured cells, rat primary striatal neuron cultures were prepared, subjected to control or OGD conditions, fixed and stained as described (Meyer et al., 2008).

[1] = system: coronal mouse brain slices; test: TTC viability staining of coronal brain slices subjected to OGD; format: cell-based; conditions: for neuroprotective effect against OGD-induced neuronal death / viability (TTC staining) after 60 min OGD: incubation 1 h prior to and during OGD; for viability (TTC staining) after 60 min OGD: 60 min without oxygen and glucose
Experimental: (§1) Slices were treated with SKF81297 (1 μM, 10 min), calpain inhibitor 3, calpeptin (20 μM, 1 h), Ca^2+-free Krebs (1 h), and Indo A or B (1 h) at indicated concentrations. See Methods.
(§2) Abs to p35, DARPP-32 (Nishi et al., 1997), GFAP, and p25 were used to stain rat coronal cryosections (20 μm) from control and stroked hemispheres. […] See Methods for further details.
Having established this pharmacological approach, the effect of OGD on neuronal viability was next quantitatively assessed by 2, 3, 5-triphenyltetrazolium chloride (TTC) staining (Bederson et al., 1986) (FIGS. 8E and 8F). TTC staining was readily observed in coronal mouse brain slices oxygenated in Kreb's buffer for 1 h. OGD induced time-dependent neuronal death with TTC staining reduced to 60.8±2.1 and 0.6±7.9% of control levels by exposure to ischemic conditions for 30 and 60 min, respectively.

Cdk5 = biological target: T2, Cdk5 (Mus musculus, UniProt P49615); test: Cdk5 inhibition in striatal slices by blotting phospho-Thr75 DARPP-32; format: cell-based
T2 construct: from tissue; host or cells: acute striatal slices
T2 sequence (P49615 whole entry): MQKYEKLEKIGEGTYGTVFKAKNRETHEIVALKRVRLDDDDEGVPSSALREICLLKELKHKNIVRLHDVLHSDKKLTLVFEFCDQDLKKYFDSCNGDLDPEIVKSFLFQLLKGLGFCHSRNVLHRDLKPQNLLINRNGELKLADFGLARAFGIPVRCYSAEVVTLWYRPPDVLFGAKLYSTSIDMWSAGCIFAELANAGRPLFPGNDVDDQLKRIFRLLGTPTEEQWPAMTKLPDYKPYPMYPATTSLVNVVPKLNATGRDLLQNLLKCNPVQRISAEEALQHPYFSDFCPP
T2 sequence (P61809 2-307 partner limits assumed): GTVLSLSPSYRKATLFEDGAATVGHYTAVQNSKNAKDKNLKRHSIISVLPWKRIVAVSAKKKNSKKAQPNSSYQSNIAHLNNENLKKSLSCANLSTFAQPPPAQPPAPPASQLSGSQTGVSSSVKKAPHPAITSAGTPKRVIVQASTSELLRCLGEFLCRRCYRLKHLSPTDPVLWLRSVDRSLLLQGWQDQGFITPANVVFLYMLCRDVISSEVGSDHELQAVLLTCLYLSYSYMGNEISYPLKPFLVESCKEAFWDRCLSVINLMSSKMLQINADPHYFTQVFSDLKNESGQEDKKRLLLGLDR
Experimental: as §1, §2
To assess the deleterious effects of aberrantly active Cdk5/p25, the selective and potent Cdk5 inhibitor, indolinone A (Gillardon et al., 2005) (Indo A) was employed. First, its ability to inhibit Cdk5 in striatal slices was assessed by treating striatal slices with various concentrations (1-10 μM) of Indo A and blotting the lysates for the defined Cdk5 site, phospho-Thr75 DARPP-32 (Bibb et al., 1999). […] In contrast the congener Indolinone B, which is limited in specificity to Cdk4 (Weishaupt et al., 2003), had no effect on Cdk5-dependent phosphorylation of DARPP-32.

[2] = system: striatal projecting spiny neurons; test: Electrophysiological recordings (EPSP, membrane potential, field potential) in corticostriatal slices under OGD; format: cell-based; conditions: pre-treatment
Text: Electrophysiological recordings of FPs and single unit activity were taken from slices under physiological and OGD conditions using described methodology (Calabresi et al., 1998; Picconi et al., 2003; Costa et al., 2006).
To better understand the physiological effects of shorter periods of ischemia, a neurophysiological approach was utilized. Sharp microelectrode intracellular recordings were obtained from striatal projecting spiny neurons identified according to their electrophysiological characteristics (Calabresi et al., 1998). In these neurons, a very brief period (2-3 min) of OGD induced loss of membrane potential (FIGS. 10A-B) and a transient suppression of the excitatory post-synaptic potential (EPSP) followed by a long-term increase in the EPSP amplitude in comparison to the pre-ischemic period (139.7±10.3%, n=5, p<0.05, FIG. 10C). This long-term increase of the glutamatergic transmission at corticostriatal synapses, called post-ischemic LTP (i-LTP), represents a pathological form of synaptic plasticity occurring after brain ischemia (Calabresi et al., 2003; Calabresi et al., 1998; Calabresi et al., 2002). […] Extracellular field potential (FP) recordings were also obtained from corticostriatal slices. In control conditions, 10 min of OGD caused an irreversible loss of FP (FIGS. 10E-F).

T1 sequence (Q61616 whole entry): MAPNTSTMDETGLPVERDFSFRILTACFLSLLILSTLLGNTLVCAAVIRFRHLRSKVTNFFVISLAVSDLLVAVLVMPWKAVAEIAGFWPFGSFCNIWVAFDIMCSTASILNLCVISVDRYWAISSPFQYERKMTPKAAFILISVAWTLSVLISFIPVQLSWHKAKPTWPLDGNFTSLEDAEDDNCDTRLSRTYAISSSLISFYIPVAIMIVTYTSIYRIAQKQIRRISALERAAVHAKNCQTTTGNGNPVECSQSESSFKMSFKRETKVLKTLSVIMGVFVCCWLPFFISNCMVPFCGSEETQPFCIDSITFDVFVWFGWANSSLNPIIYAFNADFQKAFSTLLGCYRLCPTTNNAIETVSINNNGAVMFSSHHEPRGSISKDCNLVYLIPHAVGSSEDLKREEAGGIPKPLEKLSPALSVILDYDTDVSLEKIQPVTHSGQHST

Molecule	OGD-dependent p25 generation (calpain)	TTC staining intensity relative to 60 min OGD without inhibitor [1] [fold]	neuroprotective effect against OGD-induced neuronal death [1]	viability (TTC staining) after 60 min OGD [1]	also measured
Oc1cc2c(c(Cl)c1O)CCNCC2c1ccccc1 (centres unmarked) [SKF81297]	–	–	–	–	increase in phospho-Ser845 GluR1 (D1 dopamine receptor; oxygenated slices, 1 μM, 5 min): 2.0±0.1 fold; increase in phospho-Thr34 DARPP-32 (D1 dopamine receptor; oxygenated slices, 1 μM, 5 min): 3.6±0.3 fold
CC(C)[C@H](NC(=O)OCc1ccccc1)C(=O)N[C@H](C=O)Cc1ccccc1 [calpain inhibitor 3] (Cbz-Val-Phe-aldehyde)	prevented p25 generation	–	–	–	–
CCCC[C@@H](C=O)NC(=O)[C@H](CC(C)C)NC(=O)OCc1ccccc1 [calpeptin]	prevented p25 generation	111.3±6.0	significantly blocked neuronal death	69.6±6.6 % of control levels	–
Indolinone B [Indo B]	–	–	no such neuroprotective effect	–	effect on Cdk5-dependent phosphorylation of DARPP-32 (Cdk5): had no effect
indolinone A [Indo A]	–	95.5±9.6	significantly blocked neuronal death	59.7±6.0 % of control levels	increase in phospho-Ser845 in response to SKF81297 after 10 min of ischemia (D1 dopamine receptor; preincubation with Indo A 10 μM, 1 h, 10 min OGD/10 min reperfusion): 4.7±1.2 fold; induction of i-LTP at corticostriatal synapses ([2]; 3 min OGD, n=5): completely blocked the induction of i-LTP; loss of field potential (FP) induced by ischemia ([2]; 10 min OGD): significantly reduced the loss of FP; phospho-Thr75 DARPP-32, reduction to % of basal levels (Cdk5; 5 μM): 26±8 % of basal levels; IC50 (Cdk5; 1-10 μM, 1 h): 290 nM
